From patent US20260337176A1, “AUTOPHAGY REGULATOR AND USE THEREOF” (SHENZHEN INSTITUTES OF ADVANCED TECHNOLOGY, CHINESE ACADEMY …, priority 2023, published 2026)

Legend:
HeLa cells = test: Verification of how compound enters cells (37 °C vs 4 °C); format: cell-based; conditions: 2 μM, 30 min, complete medium; for way of entering cells: 37 °C vs 4 °C
Procedure: (§1) Cancer cells HeLa and 4T1 and normal cells HEK293 were cultured using a complete medium (DMEM medium containing 10% fetal bovine serum and 1% penicillin/streptomycin) in a saturated-humidity incubator at 37 °C and 5% CO2, and passaged once every 2 to 3 days.
(§2) When the cells grew to the logarithmic phase, they were transferred to confocal dishes or 96-well plates: Cells fully grown in a T25 cell culture flask were first washed with PBS, and then digested with 1 mL of trypsin for 1 to 2 minutes (0.25% trypsin for HeLa and 4T1, and 0.025% trypsin for HEK293). After removal of trypsin, fresh medium was added, and the cells were pipetted uniformly and counted, whose density was controlled by the amount of medium added. (1) The cells were inoculated into a confocal glass-bottom culture dish, and was cultured in a 5% CO2 incubator.When the cells grew to a coverage of ~70% they were used for confocal imaging experiments. (2) The cells were inoculated into a low-attachment U-bottom 96-well plate, and when the diameter of the cell spheroids reached ~800 μm, the cell spheroids were used for antitumor evaluation.
After two groups of HeLa cells grown on confocal glass-bottom culture dishes prepared in Test example 1 were washed with PBS, one group was incubated at 37 °C in the dark for 30 min in complete medium with 2 μM of the compound synthesized in Example 1, and the other group was incubated at 4 °C for the same period in complete medium with 2 μM of compound synthesized in Example 1. After PBS washing, the incubated cells were placed in DMEM, and red fluorescence distribution in cells from the two groups was observed and recorded using a laser scanning confocal microscope (EX561 nm, EM600-700 nm).
After two groups of HeLa cells grown on confocal glass-bottom culture dishes prepared in Test example 1 were washed with PBS, one group was incubated in complete medium with 2 μM of (E)-4-(2-(5-methoxy-1H-indol-3-yl)vinyl)-1-n-octylquinolinium iodide in the dark at 37 °C for 30 min, and the other group was incubated in complete medium solution with 2 μM (E)-4-(2-(5-methoxy-1H-indol-3-yl)vinyl)-1-n-octylquinolinium iodide in the dark at 4 °C for the same period. After PBS washing, the cells were placed in DMEM, and red fluorescence in cells from the two groups was observed and recorded using a laser scanning confocal microscope (EX561 nm, EM600-700 nm).

[1] = test system: cancer cells HeLa and 4T1 and normal cells HEK293; test: Selectivity for tumor cells (red fluorescence intensity in cancer vs normal cells); format: cell-based; conditions: 4T1 vs HEK293, 1 μM, 30 min; for fluorescence intensity, cancer cells vs normal cells, complete medium / selectivity for cancer cells: complete medium (serum-containing)
Procedure: as §1, §2
After three groups of cancer cells HeLa and 4T1 and normal cells HEK293 individually grown on confocal glass-bottom culture dishes prepared in Test example 1 were washed with PBS, one group was incubated in complete medium (serum-containing) with 1 μM of the compound synthesized in Example 1 in the dark for 30 min, and the second group was incubated in complete medium with 1 μM of (E)-4-(2-(5-methoxy-1H-indol-3-yl)vinyl)-1-n-octylquinolinium iodide in the dark for 30 min, and the third group was incubated in DMEM (serum-free)with 1 μM of the compound synthesized in Example 1 in the dark for 30 min. After PBS washing, all the cells were placed in DMEM, and differences in red fluorescence intensity from the three groups of tumor cells and normal cells were observed and recorded under a laser scanning confocal microscope (EX561 nm, EM600-700 nm).

[2] = test system: HeLa cells (mitochondria and lysosomes); test: Localization observation in HeLa cells (colocalization with MitoTracker Green and LysoBrite NIR); format: cell-based; conditions: 2 μM, 30 min, confocal colocalization
Procedure: as §1
as §2, with “evaluation. […]” for “evaluation.”

[3] = test system: HeLa cells (mitochondrial membrane potential); test: Changes in mitochondrial membrane potential of HeLa cells (rhodamine 123); format: cell-based; conditions: 10 μM, 30 min, vs DMSO blank control
Procedure: as §1
as §2, with “(2) The cells were inoculated into a low-attachment U-bottom 96-well plate, and when the diameter of the cell spheroids reached ~800 μm, the cell spheroids were used for antitumor evaluation.” left out
Two groups of HeLa cells grown on confocal glass-bottom culture dishes prepared in Test example 1 were both incubated with 5 μM rhodamine 123 in darkness in a CO2 incubator for 30 min and then washed with PBS. […] After PBS washing, the cells were observed under a laser scanning confocal microscope, and the changes of the fluorescence brightness from rhodamine 123 in the two groups of cells were recorded.

[4] = test system: HeLa cells (lysosomal pH); test: Changes in lysosomal pH of HeLa cells (LysoSensor Green DND-189); format: cell-based; conditions: 10 μM, 30 min, vs DMSO blank control
Procedure: as §1
as §2, with “(2) The cells were inoculated into a low-attachment U-bottom 96-well plate, and when the diameter of the cell spheroids reached ~800 μm, the cell spheroids were used for antitumor evaluation.” left out
Two groups of HeLa cells grown on confocal glass-bottom culture dishes prepared in Test example 1 were incubated with 2 μM lysosomal green fluorescent probe (LysoSensor Green DND-189) in the dark for 30 min in a CO2 incubator, and then washed with PBS. […] The changes in the fluorescence brightness of LysoSensor Green in cells from the two groups were recorded.

HeLa cells (autophagy) = test: Imaging of autophagic vacuoles and autophagosomes in HeLa cells (Cell-Tracker Green CMFDA); format: cell-based; conditions: 10 μM, 90 min
Procedure: as §1, §2
Two groups of HeLa cells grown on confocal glass-bottom culture dishes prepared in Test example 1 were firstly washed with PBS. Then one group was incubated in the dark for 90 min in complete medium with 10 μM of the compound synthesized in Example 1, and the other group was incubated in complete medium with an equal amount of DMSO as a blank control sample. Subsequently, the cells were incubated in DMEM with 5 μM green live-cell tracking probe (Cell-Tracker Green CMFDA) for 30 min. After PBS washing, the cells were placed in DMEM and observed under a laser scanning confocal microscope. The fluorescence distribution of Cell-Tracker Green in cells from the two groups was recorded.
After HeLa cells grown on confocal glass-bottom culture dish prepared in Test example 1 was washed with PBS, they were incubated in complete medium with 10 μM of the compound synthesized in Example 2 in the dark for 90 min, and then incubated in DMEM with 5 μM green live-cell tracking probe (Cell-Tracker Green CMFDA) in the dark for 30 min followed by PBS washing. The cells were placed in DMEM and observed under a laser scanning confocal microscope. The fluorescence distribution of Cell-Tracker Green in the cells was recorded.

[5] = test system: HeLa cells (fusion of mitochondria and lysosomes); test: Fusion of mitochondria and lysosomes in HeLa cells (MitoTracker Green / LysoBrite NIR); format: cell-based; conditions: compound 10 μM in complete medium, ~5 h
Procedure: as §1
as §2, with “(2) The cells were inoculated into a low-attachment U-bottom 96-well plate, and when the diameter of the cell spheroids reached ~800 μm, the cell spheroids were used for antitumor evaluation.” left out
After two groups of HeLa cells grown on confocal glass-bottom culture dishes prepared in Test example 1 were washed with PBS, both were incubated with 1 μM mitochondrial green fluorescent probe (MitoTracker Green) in the dark for 30 min, followed by 30 min incubation with 1 μM lysosomal deep-red probe (LysoBrite NIR). […] The fluorescence distribution of MitoTracker Green and LysoBrite NIR in cells from the two groups was recorded.

HEK293 cell spheroids = test: Changes in growth of HEK293 cell spheroids; format: cell-based; conditions: 10 μM, 24 h
Procedure: as §1
as §2, with “evaluation. […]” for “evaluation.”

HeLa cell spheroids = test: Changes in growth of HeLa cell spheroids; format: cell-based; conditions: 10 μM, 24 h
Procedure: as §1, §2
After two groups of HEK293 cell spheroids and two groups of HeLa cell spheroids prepared in Test example 1 were photographed under a microscope, one group of HEK293 and HeLa cell spheroids was incubated in a complete medium containing 10 μM of the compound synthesized in Example 1 as an experimental administration group, and the other group of HEK293 and HeLa cell spheroids was incubated in a complete medium containing the same volume of DMSO as a blank control. After 24 h, photographs were taken again using the microscope to observe changes in morphology and size of the cell spheroids.

bovine serum albumin = bovine serum albumin (Bos taurus, UniProt P02769); test: Binding constant with albumin (fluorescence quenching, double-logarithmic fitting)
Procedure: The compound synthesized in Example 1 was added at different concentrations (0 to 15 μM) to PBS containing bovine serum albumin, and then fluorescence spectra of bovine serum albumin were measured using a fluorescence spectrometer (280 nm EX).

bovine serum albumin, sequence (P02769 25-607): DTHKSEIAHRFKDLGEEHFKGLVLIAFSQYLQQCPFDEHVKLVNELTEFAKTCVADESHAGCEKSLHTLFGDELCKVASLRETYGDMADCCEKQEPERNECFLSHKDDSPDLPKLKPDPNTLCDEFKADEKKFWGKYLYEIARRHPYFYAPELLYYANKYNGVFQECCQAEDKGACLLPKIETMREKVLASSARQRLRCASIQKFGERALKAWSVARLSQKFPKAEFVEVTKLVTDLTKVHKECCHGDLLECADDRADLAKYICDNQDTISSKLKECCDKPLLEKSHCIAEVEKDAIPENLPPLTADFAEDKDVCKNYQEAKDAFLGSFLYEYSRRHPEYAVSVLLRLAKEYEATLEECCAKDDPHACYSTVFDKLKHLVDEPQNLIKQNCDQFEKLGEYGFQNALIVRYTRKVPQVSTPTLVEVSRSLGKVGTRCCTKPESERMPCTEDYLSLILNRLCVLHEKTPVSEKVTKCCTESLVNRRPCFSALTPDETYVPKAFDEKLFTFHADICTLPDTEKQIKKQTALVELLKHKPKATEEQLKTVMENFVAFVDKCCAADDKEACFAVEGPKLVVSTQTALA

**Q.** For `CCCCCCCC[n+]1ccc(/C=C/c2c[nH]c3ccc(OC)cc23)c2ccccc21.[I-]` [(E)-4-(2-(5-methoxy-1H-indol-3-yl)vinyl)-1-n-octylquinolinium iodide, reference compound], which “way of entering cells” value (HeLa cells) is on record?
**A.** Its value is “enters cells mainly via free diffusion rather than active transport”.

**Q.** And the “red fluorescence at 37 °C compared with 4 °C” value (HeLa cells)?
**A.** Its value is “no obvious difference in fluorescence intensity”.

**Q.** What about the “fluorescence intensity, cancer cells vs normal cells, complete medium” value [1] of the same molecule?
**A.** Its value is “no significant difference in fluorescence intensity between cancer cells and normal cells”.

**Q.** What about the “selectivity for cancer cells” value [1] of the same molecule?
**A.** Its value is “non-selective for cancer cells”.

**Q.** Which “distribution of compound fluorescence in organelles” value [2] does the source give for `CCCCCCCCCCCC[n+]1ccc(/C=C/c2c[nH]c3ccc(OC)cc23)c2ccccc21.[I-]` [Example 1, (E)-4-(2-(5-methoxy-1H-indol-3-yl)vinyl)-1-n-dodecylquinolinium iodide] here?
**A.** The value was “distributed in the two organelles, mitochondria and lysosomes”.

**Q.** What about the “fluorescence of rhodamine 123” value [3] of the same molecule?
**A.** Its value is “greatly weakened”.

**Q.** And the mitochondrial membrane potential [3]?
**A.** The mitochondrial membrane potential was “decreases significantly”.

**Q.** And the “fluorescence of LysoSensor Green” value [4]?
**A.** The value was “greatly weakened”.

**Q.** And the “lysosomal pH” value [4]?
**A.** Its value is “increases significantly”.

**Q.** And the “autophagy activation / modulation” value (HeLa cells (autophagy))?
**A.** Its value is “can activate autophagy”.

**Q.** And the “generation of vacuoles (autophagic vacuoles/vesicles and autophagosomes) in the cytoplasm” value (HeLa cells (autophagy))?
**A.** The value was “a large number of vacuoles (autophagic vacuoles and autophagosomes) are generated”.

**Q.** And the “fusion of mitochondria and lysosomes / autophagic flux” value [5]?
**A.** The value was “can prevent fusion of cellular mitochondria and lysosomes and block autophagic flux”.

**Q.** What about the “overlap of mitochondrial and lysosomal fluorescence” value [5] of the same molecule?
**A.** The value was “almost no overlap”.

**Q.** What about the “way of entering cells” value (HeLa cells) of the same molecule?
**A.** The value was “enters cells mainly via active transport”.

**Q.** What about the “red fluorescence at 37 °C compared with 4 °C” value (HeLa cells) of the same molecule?
**A.** Its value is “significantly stronger”.

**Q.** What about the “growth inhibition of normal HEK293 cell spheroids” value (HEK293 cell spheroids) of the same molecule?
**A.** Its value is “does not cause significant growth inhibition”.

**Q.** What about the “size and shape of HEK293 cell spheroids” value (HEK293 cell spheroids; vs blank control) of the same molecule?
**A.** Its value is “do not change significantly compared with the blank control”.

**Q.** What about the “cell debris near HeLa cell spheroids” value (HeLa cell spheroids) of the same molecule?
**A.** Its value is “many cell debris appear near the cell spheroids”.

**Q.** And the “growth of cancerous HeLa cell spheroids” value (HeLa cell spheroids)?
**A.** Its value is “significantly inhibits and disrupts the growth”.

**Q.** What about the “size of HeLa cell spheroids” value (HeLa cell spheroids; vs blank control and before administration) of the same molecule?
**A.** The value was “much smaller than those in the blank control as well as than the cell spheroids before drug administration”.

**Q.** What about the “selective killing effect on cancer cells” value (HeLa cell spheroids; HeLa vs HEK293 cell spheroids) of the same molecule?
**A.** The value was “significant selective killing effect on cancer cells”.

**Q.** And the “fluorescence peak of bovine serum albumin” value (bovine serum albumin; PBS, compound 0 to 15 μM, 280 nm EX)?
**A.** Its value is “gradually decreases”.

**Q.** And the affinity for albumin (bovine serum albumin; bovine serum albumin in PBS)?
**A.** The affinity for albumin was “high affinity for albumin”.

**Q.** And the “binding constant with albumin” value (bovine serum albumin; bovine serum albumin in PBS, compound 0 to 15 μM, 280 nm EX, double-logarithmic fit)?
**A.** The value was 1.35×10^8.

**Q.** And the “fluorescence intensity, cancer cells vs normal cells, serum-free” value ([1]; DMEM (serum-free))?
**A.** The value was “almost no difference in fluorescence intensity between cancer cells and normal cells”.

**Q.** What about the “fluorescence intensity, cancer cells vs normal cells, complete medium” value [1] of the same molecule?
**A.** Its value is “the fluorescence intensity of cancer cells is significantly higher than the fluorescence intensity of normal cells”.

**Q.** And the “selectivity for cancer cells” value [1]?
**A.** The value was “high selectivity for cancer cells”.

**Q.** What about the “entry into cancer cells vs normal cells, serum-free” value ([1]; serum-free medium) of the same molecule?
**A.** Its value is “no significant difference”.

**Q.** Which “distribution of compound fluorescence in organelles” value [2] does the source give for `CCCCCCCCCCCC[n+]1ccc(/C=C/c2c[nH]c3ccccc23)c2ccccc21.[I-]` [Example 2, (E)-4-(2-(1H-indol-3-yl)vinyl)-1-n-dodecylquinolinium iodide] here?
**A.** The value was “distributed in the two organelles, mitochondria and lysosomes”.

**Q.** And the “autophagy activation / modulation” value (HeLa cells (autophagy))?
**A.** The value was “autophagy-modulating activity”.

**Q.** What about the “generation of vacuoles (autophagic vacuoles/vesicles and autophagosomes) in the cytoplasm” value (HeLa cells (autophagy)) of the same molecule?
**A.** The value was “a large number of vacuoles (autophagic vesicles and autophagosomes) are generated”.
